In patent US20240180883A1, “TREATMENT OF MIGRAINE” (Allergan Pharmaceuticals International Limited, priority 2020, published 2024):
Several values for one entry are separate records, joined by “and”; a condition that tells them apart may be missing. Identical values can stand only once. Like-named read-outs stand apart in the source and are kept apart here.

Columns and labels:
[1] = system: BCRP and/or P-gp; test: Predicted interaction with BCRP and/or P-gp inhibitors
[2] = Study A: drug interaction PK with verapamil or ketoconazole; type: in vivo, human; conditions: for AUC(0-inf) / half-life / Cmax / Tmax: human, plasma, oral
Source text: Study A (verapamil and ketoconazole) comprised 3 treatment periods.
(§1) Healthy adults aged 19-50 years for Study A and 18-45 years for Study B were eligible to participate. […] For study B, participants had to have a BMI between 18.0 and 30 kg/m^2. Exclusion criteria for both studies included hypersensitivity to any study drug; exposure to hepatitis B virus, hepatitis C virus, or HIV; or use of any drug or substance known to affect CYP enzymes or P-gp.

[3] = system: plasma protein; test: Plasma protein binding in vitro; type: in vitro ADME
[4] = molecular target: T1, CYP3A4 (Homo sapiens, UniProt P08684); test: Expected interaction with weak or moderate CYP3A4 inducers
T1 construct: mainly eliminated by CYP3A4 metabolism; from tissue; host or cells: in vivo, the patient's own enzyme (the gut wall is mentioned)

[5] = Study B: drug interaction PK with rifampin; type: in vivo, human; conditions: for half-life: read-out: Apparent terminal t1/2, mean (SD) (converted)
Source text: Study B (rifampin) had two treatment periods. […] All treatments were received under fasted conditions.
as §1

[6] = system: adult patients with migraine; test: Phase 3 Study 1 (NCT02828020) migraine efficacy; type: in vivo, human
Source text: (§2) In two randomized, double-blind, placebo-controlled, Ph. […] Of the ubrogepant-treated patients in these two studies, approximately 89% were female, 82% were white, 15% were Black, and 17% were of Hispanic or Latino ethnicity. The mean age at study entry was 41 years (range of 18-75 years).
(§3) In all studies, patients were instructed to treat a migraine with moderate to severe headache pain intensity. […] Up to 23% of patients were taking preventive medications for migraine at baseline. None of these patients were on concomitant preventive medication that act on the CGRP pathway.
(§4) The primary efficacy analyses were conducted in patients who treated a migraine with moderate to severe pain. […] Pain freedom was defined as a reduction of moderate or severe headache pain to no pain, and MBS freedom was defined as the absence of the self-identified MBS (i.e., photophobia, phonophobia, or nausea). Among patients who selected an MBS, the most commonly selected was photophobia (56%), followed by phonophobia (24%) and nausea (19%).
(§5) Table 14 also presents the results of the analyses of the percentage of patients achieving pain relief at 2 hours (defined as a reduction in migraine pain from moderate or severe to mild or none) post-dose and the percentage of patients achieving sustained pain freedom between 2 to 24 hours post-dose.

[7] = system: adults with migraine; test: Consistency of treatment, ACHIEVE trials and long-term extension trial; type: in vivo, human
Protocol: Therapeutic gain (TG) was calculated for the ACHIEVE trial and separately for the first 3 attacks of moderate/severe pain intensity treated in the long term extension trial, using placebo data from ACHIEVE. The TG ratio (TGR) was the TG from the LTE divided by the TG in the ACHIEVE trial multiplied by 100. Following consultation with regulatory agencies, a consistency threshold for the TGR of 50% or greater was used for this analysis.

[8] = system: adult patients with migraine; test: Phase 3 Study 2 (NCT02867709) migraine efficacy; type: in vivo, human; conditions: Study 2, 50 mg
Source text: as §2, §3, §4, §5

[9] = coadministered with rifampin 600 mg vs alone
[10] = ubrogepant 100 mg + rifampin 600 mg
[11] = ubrogepant 100 mg alone, listed as Ubrogepant

T1 sequence (P08684 whole entry): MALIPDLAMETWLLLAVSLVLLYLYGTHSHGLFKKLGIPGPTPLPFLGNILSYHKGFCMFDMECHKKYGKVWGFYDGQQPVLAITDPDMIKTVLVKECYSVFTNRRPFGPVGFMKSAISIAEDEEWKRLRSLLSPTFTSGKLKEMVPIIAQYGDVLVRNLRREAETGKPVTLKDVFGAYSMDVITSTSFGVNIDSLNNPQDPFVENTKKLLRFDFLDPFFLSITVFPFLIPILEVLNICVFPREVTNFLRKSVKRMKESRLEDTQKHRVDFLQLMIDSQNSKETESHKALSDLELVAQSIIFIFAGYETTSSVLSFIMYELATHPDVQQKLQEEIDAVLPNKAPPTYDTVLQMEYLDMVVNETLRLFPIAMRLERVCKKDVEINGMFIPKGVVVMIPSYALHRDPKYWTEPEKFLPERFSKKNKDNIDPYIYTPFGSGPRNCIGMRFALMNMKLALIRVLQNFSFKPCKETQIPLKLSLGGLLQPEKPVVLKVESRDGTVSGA

C[C@@H]1[C@H](c2ccccc2)C[C@H](NC(=O)c2cnc3c(c2)C[C@@]2(C3)C(=O)Nc3ncccc32)C(=O)N1CC(F)(F)F [ubrogepant, (3′S)-N-((3S,5S,6R)-6-methyl-2-oxo-5-phenyl-1-(2,2,2-trifluoroethyl)piperidin-3-yl)-2′-oxo-1′,2′,5,7-etrahydrospiro[cyclopenta[b]pyridine-6,3′-pyrrolo[2,3-b]pyridine]-3-carboxamide]
highest predicted potential increase in exposure [1]: ≤ 2 fold
increase in ubrogepant Cmax ([2]; coadministered with verapamil 240 mg vs alone): ~2.8 fold
AUC(0-inf) ([2]; 20 mg, ubrogepant 20 mg alone (Table 9), read-out: AUC0-∞, AM): 213 ng·h/mL
AUC(0-inf) ([2]; 20 mg, ubrogepant 20 mg alone, read-out: AUC0-∞, mean (SD)): 213 ng·h/mL
half-life ([2]; 20 mg, ubrogepant 20 mg alone, read-out: Apparent terminal t1/2, mean (SD) (converted)): 150 min
Cmax ([2]; 20 mg, ubrogepant 20 mg alone, read-out: Cmax, mean (SD)): 45.2 ng/mL
Tmax ([2]; 20 mg, ubrogepant 20 mg alone, read-out: Tmax, median (range)): 2 h
AUC(0-inf) ([2]; ubrogepant 20 mg + ketoconazole 400 mg, read-out: AUC0-∞, mean (SD)): 2070 ng·h/mL
half-life ([2]; ubrogepant 20 mg + ketoconazole 400 mg, read-out: Apparent terminal t1/2, mean (SD) (converted)): 354 min
Cmax ([2]; ubrogepant 20 mg + ketoconazole 400 mg, read-out: Cmax, mean (SD)): 240 ng/mL
Tmax ([2]; ubrogepant 20 mg + ketoconazole 400 mg, read-out: Tmax, median (range)): 2.5 h
AUC(0-inf) ([2]; ubrogepant 20 mg with verapamil 240 mg, read-out: AUC0-∞, AM): 742 ng·h/mL
half-life ([2]; ubrogepant 20 mg with verapamil 240 mg, read-out: Apparent terminal t1/2, AM (converted)): 257 min
Cmax ([2]; ubrogepant 20 mg with verapamil 240 mg, read-out: Cmax, AM): 125 ng/mL
Tmax ([2]; ubrogepant 20 mg with verapamil 240 mg, read-out: Tmax): 2 h
Apparent terminal t1/2, mean (SD) ([2]; ubrogepant 20 mg + ketoconazole 400 mg): 6.00 (1.27) h
Apparent terminal t1/2, mean (SD) ([2]; ubrogepant 20 mg alone): 2.52 (0.56) h and 2.52 h
exposure of ubrogepant on co-administration ([2]; with ketoconazole, a strong CYP3A4 inhibitor): significant increase in exposure
exposure of ubrogepant on co-administration ([2]; with verapamil, a moderate CYP3A4 inhibitor): increase in ubrogepant exposure
fraction unbound [3]: 0.13
reduction of ubrogepant exposure ([4]; moderate CYP3A4 inducers): 50-80%
reduction of ubrogepant exposure ([4]; weak CYP3A4 inducers): 20-50%
reduction in ubrogepant AUC0-t [5, 9]: 78%
reduction in ubrogepant Cmax [5, 9]: 69%
AUC(0-t) ([5]; human, plasma, oral, 100 mg, ubrogepant 100 mg alone, read-out: AUC0-t, mean (SD)): 1880 ng·h/mL
AUC(0-inf) ([5]; human, plasma, oral, 100 mg, ubrogepant 100 mg alone, read-out: AUC0-∞, mean (SD)): 1910 ng·h/mL
half-life ([5]; human, plasma, oral, 100 mg, ubrogepant 100 mg alone): 264 min
Cmax ([5]; human, plasma, oral, 100 mg, ubrogepant 100 mg alone, read-out: Cmax, mean (SD)): 416 ng/mL
AUC(0-t) ([5]; human, plasma, oral, 100 mg, ubrogepant 100 mg alone, read-out: Geometric LSM AUC0-t, Reference): 1720 ng·h/mL
AUC(0-inf) ([5]; human, plasma, oral, 100 mg, ubrogepant 100 mg alone, read-out: Geometric LSM AUC0-∞, Reference): 1750 ng·h/mL
Cmax ([5]; human, plasma, oral, 100 mg, ubrogepant 100 mg alone, read-out: Geometric LSM Cmax, Reference): 375 ng/mL
Tmax ([5]; human, plasma, oral, 100 mg, read-out: Tmax, median (range)): 2 h
Vd/F ([5]; human, plasma, oral, 100 mg, read-out: Vz/F): 390 ± 174 L
AUC(0-t) ([5]; human, plasma, oral, rifampin 600 mg in combination with ubrogepant 100 mg, read-out: Geometric LSM AUC0-t, Test): 378 ng·h/mL
AUC(0-inf) ([5]; human, plasma, oral, rifampin 600 mg in combination with ubrogepant 100 mg, read-out: Geometric LSM AUC0-∞, Test): 379 ng·h/mL
Cmax ([5]; human, plasma, oral, rifampin 600 mg in combination with ubrogepant 100 mg, read-out: Geometric LSM Cmax, Test): 118 ng/mL
AUC(0-t) ([5]; human, plasma, oral, ubrogepant 100 mg + rifampin 600 mg, read-out: AUC0-t, mean (SD)): 396 ng·h/mL
AUC(0-inf) ([5]; human, plasma, oral, ubrogepant 100 mg + rifampin 600 mg, read-out: AUC0-∞, mean (SD)): 397 ng·h/mL
half-life ([5]; human, plasma, oral, ubrogepant 100 mg + rifampin 600 mg): 180 min
Cmax ([5]; human, plasma, oral, ubrogepant 100 mg + rifampin 600 mg, read-out: Cmax, mean (SD)): 136 ng/mL
Apparent terminal t1/2, mean (SD) [5, 10]: 3.04 (0.64) h
CL/F [5, 10]: 282.87 ± 103.74 L/h
CL/F ([5]; ubrogepant 100 mg alone): 62.77 ± 28.33 L/h
Tmax, median (range) ([5]; ubrogepant 100 mg alone): 2 h
Apparent terminal t1/2, mean (SD) [5, 11]: 4.36 (0.75) h
Tmax, median (range) [5, 11]: 2.00 (1.00-4.00) h
exposure of ubrogepant on co-administration ([5]; with rifampin, a strong CYP3A4 inducer): significant reduction in ubrogepant exposure
Most Bothersome Symptom Free at 2 hours, % Responders ([6]; Study 1, 50 mg): 38.6%
Most Bothersome Symptom Free at 2 hours, Difference from Placebo ([6]; Study 1, 50 mg): 10.8%
Pain Relief at 2 hours, % Responders ([6]; Study 1, 50 mg): 60.7%
Pain free at 2 hours, % Responders ([6]; Study 1, 50 mg): 19.2%
Pain free at 2 hours, Difference from Placebo ([6]; Study 1, 50 mg): 7.4%
Sustained pain freedom at 2-24 hours, % Responders ([6]; Study 1, 50 mg): 12.7%
Most Bothersome Symptom Free at 2 hours, % Responders ([6]; Study 1, 100 mg): 37.7%
Most Bothersome Symptom Free at 2 hours, Difference from Placebo ([6]; Study 1, 100 mg): 9.9%
Pain Relief at 2 hours, % Responders ([6]; Study 1, 100 mg): 61.4%
Pain free at 2 hours, % Responders ([6]; Study 1, 100 mg): 21.2%
Pain free at 2 hours, Difference from Placebo ([6]; Study 1, 100 mg): 9.4%
Sustained pain freedom at 2-24 hours, % Responders ([6]; Study 1, 100 mg): 15.4%
incidence of photophobia and phonophobia compared to placebo ([6]; both doses (50 and 100 mg)): reduced
rate of 2-hour pain relief ([7]; ACHIEVE ubrogepant 100 mg treated attacks): 61.4%
rate of 2 hour pain freedom ([7]; ACHIEVE ubrogepant 100 mg-treated attacks): 21.2%
rate of 2 hour pain freedom ([7]; LTE trial, 100 mg, mean across first 3 attacks): 21.6%
rate of 2-hour pain relief ([7]; LTE trial, 100 mg, mean across first three attacks): 68.0%
Most Bothersome Symptom Free at 2 hours, % Responders [8]: 38.9%
Most Bothersome Symptom Free at 2 hours, Difference from Placebo [8]: 11.5%
Pain Relief at 2 hours, % Responders [8]: 62.7%
Pain free at 2 hours, % Responders [8]: 21.8%
Pain free at 2 hours, Difference from Placebo [8]: 7.5%
Sustained pain freedom at 2-24 hours, % Responders [8]: 14.4%
